This test has as its system melanocortin receptor. Nature of the test: Melanocortin receptor modulation by ACTH1-39 (applicants' finding, no method given).

With “H-Ser-Tyr-Ser-Met-Glu-His-Phe-Arg-Trp-Gly-Lys-Pro-Val-Gly-Lys-Lys-Arg-Arg-Pro-Val-Lys-Val-Tyr-Pro-Asp-Gly-Ala-Glu-Asp-Gln-Leu-Ala-Glu-Ala-Phe-Pro-Leu-Glu-Phe-OH (H-SYSMEHFRWGKPVGKKRRPVKVYPDGAEDQLAEAFPLEF-OH) [ACTH1-39]”, the melanocortin receptor modulation result is recorded as “pan-melanocortin receptor modulator”.

Source of the values: patent US8796416B1, “ACTH prophylactic treatment of renal disorders” (Questcor Pharmaceuticals, Inc, priority 2010, dated 2014).
